According to patent US20230086702A1, “SUBSTITUTED 2-AMINO-PYRAZOLYL-[1,2,4]TRIAZOLO[1,5A]PYRIDINE DERIVATIVES AND USE THEREOF” (The Johns Hopkins University, priority 2019, published 2023):

Key:
DLK = target: T1, DLK (Homo sapiens, UniProt Q12852); assay: DLK biochemical assay (TR-FRET, MKK7 phosphorylation)
T1 construct: 10 nM DLK, catalytic domain, Carna Biosiences; purchased Carna Biosciences ('Carna Biosiences' [sic])
T1 sequence (Q12852 125-366 limits assumed): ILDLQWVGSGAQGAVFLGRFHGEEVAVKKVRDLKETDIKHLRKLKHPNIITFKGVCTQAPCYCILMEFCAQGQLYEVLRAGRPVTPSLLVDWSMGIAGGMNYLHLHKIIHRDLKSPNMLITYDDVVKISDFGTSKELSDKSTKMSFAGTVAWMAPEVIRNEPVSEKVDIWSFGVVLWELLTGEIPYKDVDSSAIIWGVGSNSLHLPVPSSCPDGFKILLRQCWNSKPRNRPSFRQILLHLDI
Procedure, shortened: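 TR-FRET read-out (665/Eu ratio) of MKK7 T275/S277 phosphorylation, with inhibition lowering the signal. Final conditions: 10 nM DLK catalytic domain, 15 nM MKK7, 60 μM ATP, 90 min at RT. Detection incubation 16 h at 37° C in 1536-well or 4° C in 384-well format.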

LZK = target: T2, LZK (Homo sapiens, UniProt O43283); assay: LZK biochemical assay (TR-FRET, MKK7 phosphorylation)
T2 construct: 10 nM LZK, catalytic domain, Carna Biosiences in assay buffer; purchased Carna Biosciences ('Carna Biosiences' [sic])
T2 sequence (O43283 168-409 limits assumed): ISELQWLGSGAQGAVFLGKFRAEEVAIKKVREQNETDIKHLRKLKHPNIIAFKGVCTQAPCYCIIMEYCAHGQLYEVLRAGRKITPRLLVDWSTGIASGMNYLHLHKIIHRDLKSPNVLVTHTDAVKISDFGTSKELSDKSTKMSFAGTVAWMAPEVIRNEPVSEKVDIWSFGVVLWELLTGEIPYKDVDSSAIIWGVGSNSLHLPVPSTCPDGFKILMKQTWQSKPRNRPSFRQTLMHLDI
Procedure, shortened: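 Read-out is HTRF: Eu-labelled anti-phospho-MKK7 (T275/S277) and XL665 anti-His, incubated 16 h at 32 °C, with a drop in signal marking inhibition. Reaction beforehand: 10 nM LZK kinase domain, 15 nM His-MKK7, 15 µM ATP (final) for 90 min at room temperature, pH 7.5.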

SMILES	IC50 (DLK) [nM]	IC50 (LZK) [nM]
CCC(c1ccc(C(F)(F)F)cc1)n1cc(-c2cc(-c3cnn(C)c3)c3nc(N)nn3c2)cn1 (single isomer, unassigned) [II-101, 8-(1-Methyl-1H-pyrazol-4-yl)-6-(1-{1-[4-(trifluoromethyl)phenyl]propyl}-1H-pyrazol-4-yl)[1,2,4]triazolo[1,5-a]pyridin-2-amine]	6.8	110
CC[C@@H](c1ccccc1)n1cc(-c2cc(-c3cnn(C(C)C(F)(F)F)c3)c3nc(N)nn3c2)cn1 (single isomer, unassigned) [II-95]	5.6	40
CC(C)C(c1ccc(C(F)(F)F)nc1)n1cc(-c2cc(-c3ccc(C4(O)CCC4)nc3)n3nc(N)nc3c2)cn1 (single isomer, unassigned) [II-82, 1-{5-[2-Amino-7-(1-{2-methyl-1-[6-(trifluoromethyl)pyridin-3-yl]propyl}-1H-pyrazol-4-yl)[1,2,4]triazolo[1,5-a]pyridin-5-yl]pyridin-2-yl}cyclobutan-1-ol]	42	42
Nc1nc2c(-c3cnn(CC4CC4(F)F)c3)cc(-c3cnn(Cc4ccccc4)c3)cn2n1 (racemic) [II-89, 6-(1-Benzyl-1H-pyrazol-4-yl)-8-{1-[(2,2-difluorocyclopropyl)methyl]-1H-pyrazol-4-yl}[1,2,4]triazolo[1,5-a]pyridin-2-amine]	12	39
Nc1nc2cc(-c3cnn(C(c4ccc(C(F)(F)F)nc4)C4CCOCC4)c3)cc(-c3ccc(=O)n(C(F)F)c3)n2n1 (single isomer, unassigned) [II-184, 5-[2-Amino-7-(1-{tetrahydro-2H-pyran-4-yl[6-(trifluoromethyl)pyridin-3-yl]methyl}-1H-pyrazol-4-yl)[1,2,4]triazolo[1,5-a]pyridin-5-yl]-1-(difluoromethyl)pyridin-2(1H)-one]	1.2	2.4
CC[C@@H](c1ccccc1)n1cc(-c2cc(-c3cnn(CC)c3)c3nc(N)nn3c2)cn1 [II-91, 8-(1-Ethyl-1H-pyrazol-4-yl)-6-{1-[(1S)-1-phenylpropyl]-1H-pyrazol-4-yl}[1,2,4]triazolo[1,5-a]pyridin-2-amine]	5.2	115
CCC(c1ccc(C(F)(F)F)nc1)n1cc(-c2cc(-c3ccn(C)c(=O)c3)c3nc(N)nn3c2)cn1 (single isomer, unassigned) [II-170, 4-[2-Amino-6-(1-{1-[6-(trifluoromethyl)pyridin-3-yl]propyl}-1H-pyrazol-4-yl)[1,2,4]triazolo[1,5-a]pyridin-8-yl]-1-methylpyridin-2(1H)-one]	73	220
CCc1cnc(-c2cc(-c3cnn(Cc4ccccc4)c3)cc3nc(N)nn23)cn1 [II-87, 7-(1-Benzyl-1H-pyrazol-4-yl)-5-(5-ethylpyrazin-2-yl)[1,2,4]triazolo[1,5-a]pyridin-2-amine]	42	530
CCS(=O)(=O)c1cccc(-c2cc(-c3cnn(C(c4ccc(C(F)(F)F)nc4)C4CCOCC4)c3)cn3nc(N)nc23)c1 (single isomer, unassigned) [II-17, 8-[3-(Ethylsulfonyl)phenyl]-6-(1-{tetrahydro-2H-pyran-4-yl[6-(trifluoromethyl)pyridin-3-yl]methyl}-1H-pyrazol-4-yl)[1,2,4]triazolo[1,5-a]pyridin-2-amine]	2.1	11
Nc1nc2c(-c3cnn(CC(F)(F)F)c3)cc(-c3cnn(C(c4ccc(C(F)(F)F)nc4)C4CCOCC4)c3)cn2n1 (racemic) [II-117, 6-(1-{Tetrahydro-2H-pyran-4-yl[6-(trifluoromethyl)pyridin-3-yl]methyl}-1H-pyrazol-4-yl)-8-[1-(2,2,2-trifluoroethyl)-1H-pyrazol-4-yl][1,2,4]triazolo[1,5-a]pyridin-2-amine]	3.8	29
Nc1nc2c(-c3cccc(S(=O)(=O)C(F)(F)F)c3)cc(-c3cnn(C(c4ccc(C(F)(F)F)nc4)C4CCOCC4)c3)cn2n1 (single isomer, unassigned) [II-20, 6-(1-{Tetrahydro-2H-pyran-4-yl[6-(trifluoromethyl)pyridin-3-yl]methyl}-1H-pyrazol-4-yl)-8-{3-[(trifluoromethyl)sulfonyl]phenyl}[1,2,4]triazolo[1,5-a]pyridin-2-amine]	71	140
CC[C@@H](c1ccc(OC(F)(F)F)nc1)n1cc(-c2cc(-c3cnn(CC(F)(F)F)c3)n3nc(N)nc3c2)cn1 (single isomer, unassigned) [II-116, 5-[1-(2,2,2-Trifluoroethyl)-1H-pyrazol-4-yl]-7-(1-{1-[6-(trifluoromethoxy)pyridin-3-yl]propyl}-1H-pyrazol-4-yl)[1,2,4]triazolo[1,5-a]pyridin-2-amine]	9.7	22
Nc1nc2cc(-c3cnn(Cc4ccccc4)c3)cc(-c3cnn(C(F)F)c3)n2n1 [II-121, 7-(1-Benzyl-1H-pyrazol-4-yl)-5-[1-(difluoromethyl)-1H-pyrazol-4-yl][1,2,4]triazolo[1,5-a]pyridin-2-amine]	32	150
CC(C)C(c1ccc(C(F)(F)F)nc1)n1cc(-c2cc(-c3ccc(C4CC(F)(F)C4)nc3)n3nc(N)nc3c2)cn1 (racemic) [II-73, 5-[6-(3,3-Difluorocyclobutyl)pyridin-3-yl]-7-(1-{2-methyl-1-[6-(trifluoromethyl)pyridin-3-yl]propyl}-1H-pyrazol-4-yl)[1,2,4]triazolo[1,5-a]pyridin-2-amine]	44	44
CS(=O)(=O)c1cccc(-c2cc(-c3cnn(C(c4ccc(C(F)(F)F)nc4)C4CCOCC4)c3)cn3nc(N)nc23)c1 (single isomer, unassigned) [II-15, 8-[3-(Methylsulfonyl)phenyl]-6-(1-{tetrahydro-2H-pyran-4-yl[6-(trifluoromethyl)pyridin-3-yl]methyl}-1H-pyrazol-4-yl)[1,2,4]triazolo[1,5-a]pyridin-2-amine]	0.9	2.7
Nc1nc2cc(-c3cnn(C4CCN(C5COC5)CC4)c3)cc(-c3ccc(C4CC4)nc3)n2n1 [II-83, 5-(6-Cyclopropylpyridin-3-yl)-7-{1-[1-(oxetan-3-yl)piperidin-4-yl]-1H-pyrazol-4-yl}[1,2,4]triazolo[1,5-a]pyridin-2-amine]	210	110
Cc1cc(-c2cc(-c3cnn(Cc4ccccc4)c3)cc3nc(N)nn23)cnn1 [II-88, 7-(1-Benzyl-1H-pyrazol-4-yl)-5-(6-methylpyridazin-4-yl)[1,2,4]triazolo[1,5-a]pyridin-2-amine]	480	620
CCC(c1ccc(C(F)(F)F)cc1)n1cc(-c2cc(-c3cnn(C4CCCC4)c3)n3nc(N)nc3c2)cn1 (single isomer, unassigned) [II-134, 5-(1-Cyclopentyl-1H-pyrazol-4-yl)-7-(1-{1-[4-(trifluoromethyl)phenyl]propyl}-1H-pyrazol-4-yl)[1,2,4]triazolo[1,5-a]pyridin-2-amine]	32	44
CC[C@@H](c1ccc(F)cc1)n1cc(-c2cc(-c3cnn(CC(F)(F)F)c3)n3nc(N)nc3c2)cn1 [II-128]	15	160
Nc1nc2c(-c3cnn(CC(F)(F)F)c3)cc(-c3cnn(C(c4ccc(C(F)(F)F)nc4)C4CCOCC4)c3)cn2n1 (single isomer, unassigned) [II-118, 6-(1-{Tetrahydro-2H-pyran-4-yl[6-(trifluoromethyl)pyridin-3-yl]methyl}-1H-pyrazol-4-yl)-8-[1-(2,2,2-trifluoroethyl)-1H-pyrazol-4-yl][1,2,4]triazolo[1,5-a]pyridin-2-amine]	0.6	2.6
CC[C@@H](c1ccccc1)n1cc(-c2cc(-c3cnn(C(C)C(F)(F)F)c3)c3nc(N)nn3c2)cn1 (mixture of isomers) [II-94, 6-{1-[(15)-1-Phenylpropyl]-1H-pyrazol-4-yl}-8-[1-(1,1,1-trifluoropropan-2-yl)-1H-pyrazol-4-yl][1,2,4]triazolo[1,5-a]pyridin-2-amine]	22	200
Nc1nc2c(-c3ccc(=O)n(CC(F)F)c3)cc(-c3cnn(C(c4ccc(C(F)(F)F)nc4)C4CCOCC4)c3)cn2n1 (single isomer, unassigned) [II-157, 5-[2-Amino-6-(1-{tetrahydro-2H-pyran-4-yl[6-(trifluoromethyl)pyridin-3-yl]methyl}-1H-pyrazol-4-yl)[1,2,4]triazolo[1,5-a]pyridin-8-yl]-1-(2,2-difluoroethyl)pyridin-2(1H)-one]	5.9	12
Nc1nc2cc(-c3cnn(C(c4ccccc4)C4CCNCC4)c3)cc(-c3cnn(CC(F)(F)F)c3)n2n1 (stereo not drawn) [II-152]	1.4	16
Nc1nc2cc(-c3cnn(Cc4ccccc4)c3)cc(-c3cnn(CC4CC4(F)F)c3)n2n1 (stereo not drawn) [II-124]	7.1	73
